Publication PMC7509555, “An In Vitro Study for Evaluating Permeability and Metabolism of Kurarinone” (Evidence-based Complementary and Alternative Medicine : eCAM, 2020)

Columns and labels:
UGT1A6 = target: T1, UGT1A6 (Homo sapiens, UniProt P19224); assay: Inhibition of recombinant UGT1A6-catalyzed 4-MU glucuronidation; assay type: in vitro ADME; details: recombinant UGT1A6, pH 7.4, probe 4-MU (110 μM), 100 μM kurarinone, recombinant UGT
T1 construct: purchased BD Gentest Corp. (Woburn, MA, USA)
T1 sequence (P19224 27-532): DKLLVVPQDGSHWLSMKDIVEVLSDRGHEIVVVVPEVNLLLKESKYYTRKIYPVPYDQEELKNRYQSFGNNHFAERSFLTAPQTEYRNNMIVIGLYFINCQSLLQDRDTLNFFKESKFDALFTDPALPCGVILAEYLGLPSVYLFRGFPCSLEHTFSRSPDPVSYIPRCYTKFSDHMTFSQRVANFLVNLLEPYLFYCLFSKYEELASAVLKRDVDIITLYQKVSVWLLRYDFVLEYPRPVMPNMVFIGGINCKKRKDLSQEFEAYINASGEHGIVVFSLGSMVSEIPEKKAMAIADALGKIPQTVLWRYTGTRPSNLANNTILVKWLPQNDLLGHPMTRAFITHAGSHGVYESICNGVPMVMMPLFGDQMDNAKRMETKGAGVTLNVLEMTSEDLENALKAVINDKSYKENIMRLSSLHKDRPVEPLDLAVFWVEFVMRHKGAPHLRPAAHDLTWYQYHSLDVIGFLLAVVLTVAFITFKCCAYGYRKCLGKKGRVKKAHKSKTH
Protocol: 4-MU, a nonspecific probe substrate for UGT isoforms, was used to explore the inhibition of UGT isoforms by kurarinone. The mixture (200 μL total volume) contained recombinant UGTs (final concentrations: 0.125, 0.05, 0.025, 0.05, 0.025, 0.05, 0.05, 0.25, 0.05, and 0.2 mg/mL for UGT1A1, UGT1A3, UGT1A6, UGT1A7, UGT1A8, UGT1A9, UGT1A10, UGT2B4, UGT2B7, and UGT2B15, respectively), 5 mM UDPGA, 5 mM MgCl2, 50 mM Tris-HCl buffer (pH 7.4), and 4-MU in the absence or presence of various concentrations of kurarinone. The concentrations of 4-MU were as follows: 110 μM for UGT1A1 and UGT1A6, 1200 μM for UGT1A3 and UGT2B4, 15 μM for UGT1A7, 750 μM for UGT1A8, 30 μM for UGT1A9, 80 μM for UGT1A10, 350 μM for UGT2B7, 250 μM for UGT2B15, and 2000 μM for UGT2B17. Kurarinone was dissolved in methanol, and the final concentration of methanol was 0.5% (v/v). Reactions were initiated by adding UDPGA, and incubations were carried out at 37°C in a shaking waterbath for 60 min. The reactions were terminated by addition of 200 μL of ice-cold acetonitrile containing 7-hydroxycoumarin (100 μM) as the internal standard. The incubation mixture was then centrifuged at 20,000 ×g for 20 min to obtain the supernatant, and an aliquot of supernatant (20 μL) was transferred to an autoinjector vial for HPLC analysis.

CYP2C9 = assay: Inhibition of CYP2C9 activity (diclofenac probe) in RLMs; assay type: in vitro ADME; details: rat, rat liver microsomes, probe diclofenac 10 μM, 100 μM kurarinone, 10 μM diclofenac
Protocol: (§1) Samples were prepared in a total volume of 200 μL, containing 0.3 mg/mL protein in human liver microsomes or 15 nM protein in recombinant human supersomes, probe substrates or 50 μM kurarinone, 10 mM MgCl2, 10 mM glucose-6-phosphate, and 1 unit/mL of glucose-6-phosphate dehydrogenase. The reactions were activated by adding NADPH following preincubation at 37°C for 5 min. The reactions were maintained at 37°C for 1 h and terminated by adding 200 μL ice-cold acetonitrile. The supernatant (10 μL) collected from the samples that were centrifuged (20,000 g, 20 min, 4°C) was injected into the HPLC system for analysis. Control incubations devoid of NADPH or kurarinone were performed parallelly to ensure that the produced metabolites were NADPH- or kurarinone-dependent.
RLMs were used to assess the inhibitory effects of kurarinone (100 μM) on six different human isoforms (CYP1A2, CYP2C9, CYP2D6, CYP2E1, CYP3A4, and CYP2C19). The probe substrates used in this experiment were 40 μM phenacetin for CYP1A2, 10 μM diclofenac for CYP2C9, 25 μM dextromethorphan for CYP2D6, 120 μM chlorzoxazone for CYP2E1, 35 μM testosterone for CYP3A4, and 20 μM (S)-mephenytoin for […] as described earlier. The reaction system has been described in Section 2.3. […]

[1] = test system: rat liver microsomes (RLMs); assay: Enzyme kinetics of P1 formation from kurarinone in RLMs; assay type: in vitro ADME
Protocol: as §1
Various concentrations of kurarinone (1–200 μM) were incubated with RLMs, MLMs, PLMs, RAMs, CYP1A2, and CYP2D6 to estimate kinetic parameters. The rest of the other conditions remained the same as described in Section 2.3. […] The apparent Km and Vmax values were calculated from nonlinear regression analysis of experimental data according to the Michaelis–Menten equation, and the results were represented graphically by Eadie–Hofstee plots. All incubations were carried out as triplicate independent experiments, and kinetic constants were recorded as mean ± SD.

[2] = Prediction of in vivo hepatic clearance in rat from RLM kinetics; assay type: in vitro ADME
Text: The following equations were utilized to predict the in vivo hepatic clearance of kurarinone in humans and rats.(1) CLint in vitro=Vmax/Km, (2) […], (3) CLH=QH·fu·CLint in/QH+fu·CLint in vivo, where the SF (scaling factor) represents the milligrams of microsomal protein per gram of the liver multiplied by the grams of liver weight; CLint is the intrinsic metabolic clearance; CLH is hepatic clearance; fu is the free fraction in the blood (no data were available for kurarinone; thus, fu was arbitrarily proposed to be 1); and QH is the hepatic blood flow. The CLH of kurarinone was calculated using equations (1)–(3).

primary rat hepatocytes = details: cited from earlier work

## C=C(C)[C@H](CC=C(C)C)Cc1c(O)cc(OC)c2c1O[C@H](c1ccc(O)cc1O)CC2=O [Kurarinone]
UGT1A6
  inhibition at 60 min, 100 μM: > 90%
CYP2C9
  inhibition at 1 h, 100 μM: > 90%
[1]
  Vmax of P1 formation: 3.34 ± 0.19 nmol·min^−1·mg^−1 protein
[1]; kurarinone 1–200 μM
  Km: 18.1 ± 3.91 µM
[2]; rat
  percentage of CLH versus hepatic blood flow (QH): 83.35%
[2]; rats, from RLM kinetic parameters of P1, fu assumed 1
  predicted hepatic clearance CLH: 46.01 mL/min/kg body weight
Primary rat hepatocytes
  cytotoxicity: remarkable cytotoxicity
